Where a name gives a salt, the structure may show the parent alone.
Experiments:
[1] = system: human ES-2(CLDN6) xenograft tumors; experiment: Early ES-2(CLDN6) subcutaneous xenograft tumor model, IMAB027 with paclitaxel; type: in vivo, mice; details: s.c. ES-2(CLDN6) xenograft; paclitaxel 15 mg/kg i.p. day 3, 10, 17; IMAB027 35 mg/kg three times a week from day 4; vs control group
Protocol: Subcutaneous human ES-2 xenograft tumors ectopically expressing human CLDN6 were treated with 15 mg/kg paclitaxel on day 3, 10 and 17 post graft by i.p. injections. Antibody maintenance therapy started on day 4 with three 35 mg/kg IMAB027 injections per week (alternating i.v./i.p./i.p.).
Hsd:Athymic Nude-Foxn1^nu mice were engrafted with human cancer cell lines. […] The control group received antibody buffer (vehicle control).
Specifically, for treatment of human ES-2(CLDN6) xenograft tumors, the human ovarian carcinoma cell line ES-2 stably transfected with human CLDN6 was cultivated in Minimum Essential Media (Life Technologies) containing 1 x non-essential amino acids solution (Life Technologies), 700 μg/ml G418 (Life Technologies) and 10% FCS (Life Technologies) at 3TC in a humidified incubator with 5% CO2. For engraftment, 6 week-old female Hsd:Athymic Nude-Foxn1^nu mice were subcutaneously inoculated with 5×10^6 ES-2(CLDN6) cells in 200 μl PBS into the flank. On day 3 post subcutaneous tumor inoculation, mice were treated with either saline control, antibody or chemotherapeutic drug monotherapy and antibody/cytostatic drug combination therapy groups (n=12 per group). […] Tumor burden and animal health were monitored twice a week. […] Inhibition of tumor growth was analyzed using the Kruskal-Wallis test and the post-hoc Dunn's multiple comparison test.

COV362(Luc) cells = experiment: CLDN6 surface expression on COV362(Luc) cells after pretreatment with cytostatic agents (flow cytometry); type: cell-based, human; details: 4 days drug (5 ng/ml paclitaxel, 20 μg/ml carboplatin, 25 ng/ml gemcitabine, 20 ng/ml doxorubicin, 7.5 ng/ml topotecan), then 3 or 10 days without drug
Protocol: ADCC activity of IMAB027 in combination with chemotherapy was analyzed using COV362(Luc) target cells. Therefore, cells were treated for 4 days with carboplatin, gemcitabine, paclitaxel, doxorubicin or topotecan at indicated concentrations. After treatment, cells were grown for 3 (A-D) and 10 days (E-J) in the absence of cytostatic drugs, respectively. Control cells were cultured without cytostatics. (A, C, E, G, I) ADCC experiments were performed with IMAB027 (black lines) or an isotype control antibody (grey lines) using PBMC from healthy donors at an effector (PBMC) to target cell ratio of ˜40:1. Data points (n=4 replicates) are depicted as mean±SD. (B, D, F, H, J) Expression of CLDN6 was analyzed by flow cytometry using IMAB027.
The cells were washed twice and resuspended in FACS buffer. The binding was analysed by flow cytometry using a BD FACSArray (BD Biosciences) and FlowJo software (Tree Star Inc.). The live/dead dye propidium iodide (Sigma, P4864) was used to exclude dead cells from the analysis.
The human ovarian carcinoma cell line COV362 stably transfected with luciferase as a reporter was used to determine the influence of carboplatin and paclitaxel on IMAB027-mediated ADCC. COV362(Luc) cells (3×10^6 cells per 150 mm cell culture dish) were grown under standard conditions. After 24 h, cells were treated with 5 ng/ml paclitaxel, 20 μg/ml carboplatin, 25 ng/ml gemcitabine, 20 ng/ml doxorubicin or 7.5 ng/ml topotecan and incubated for 4 days. The medium was changed and the treated cells were grown under standard growth conditions for further 3 days for carboplatin and gemcitabine or 10 days for paclitaxel, doxorubicin or topotecan.

[2] = system: human NEC14 xenograft tumors; experiment: Advanced NEC14 subcutaneous xenograft tumor model, IMAB027 with cisplatin or carboplatin; type: in vivo, mice; details: advanced s.c. NEC14 xenograft; cisplatin 1 mg/kg i.p. day 6-10; carboplatin 30 mg/kg i.p. day 6, 13, 20; IMAB027 35 mg/kg three times a week from day 6
Protocol: Subcutaneous human NEC14 xenograft tumors were grown to a median size of ˜100 mm^3 before the beginning of the treatment. Mice were treated with 1 mg/kg cisplatin by i.p. injections daily from day 6 to 10 post engraftment and with three 35 mg/kg IMAB027 injections per week (alternating i.v./i.p./i.p.) starting on day 6 as maintenance therapy. […] The arrow marks the time point of therapy start. (B) Individual tumor size in mice at day 24 post graft (mean with ±standard diviation). (C) Survival curves of treated mice. Group size: n=19. P-values: *, p<0.05; **, p<0.01 and ***, p<0.001.
Instead of cisplatin, mice were treated with 30 mg/kg carboplatin on days 6, 13 and 20 by bolus i.p. injections. […] The arrow marks the time point of therapy start. (B) Individual tumor size in mice at day 24 post graft (mean with ±standard diviation). (C) Survival curves of treated mice. Group size: n=19. P-values: *, p<0.05; **, p<0.01 and ***, p<0.001. […]
For treatment of advanced human NEC14 xenograft tumors the human testicular germ cell tumor cell line NEC14 was cultivated according to the instructions of the supplier in RPMI 1640 medium GlutaMAX™ (Life Technologies) containing 10% FCS (Life Technologies) at 3TC in a humidified incubator with 5% CO2. […] Tumor burden were monitored twice a week. […] Inhibition of tumor growth was analyzed using the Kruskal-Wallis test and the post-hoc Dunn's multiple comparison test.

Compound | tumor growth / anti-tumoral activity [1] | protein levels of CLDN6 on the cell surface after pretreatment (COV362(Luc) cells) | tumor growth / anti-tumoral efficacy [2]
CC(=O)O[C@H]1C(=O)[C@@]2(C)[C@H]([C@H](OC(=O)c3ccccc3)[C@]3(O)C[C@H](OC(=O)[C@H](O)[C@@H](NC(=O)c4ccccc4)c4ccccc4)C(C)=C1C3(C)C)[C@]1(OC(C)=O)CO[C@@H]1C[C@@H]2O [paclitaxel, (2α,4α,5β,7β,10β,13α)-4,10-bis-(acetyloxy)-13-{[(2R,3S)-3-(benzoylamino)-2-hydroxy-3-phenylpropanoyl]oxy}-1,7-dihydroxy-9-oxo-5,20-epoxytax-11-en-2-yl benzoate] | does not show anti-tumoral activity | increased protein levels of CLDN6 on the cell surface | 
N.N.[Cl][Pt][Cl] [cisplatin, cis-diamminedichloroplatinum(II)] |  |  | highly significantly reduce tumor growth
Nc1ccn([C@@H]2O[C@H](CO)[C@@H](O)C2(F)F)c(=O)n1 [gemcitabine, 4-amino-1-(2-deoxy-2,2-difluoro-β-D-erythro-pentofuranosyl)pyrimidin-2 (1H)-one] |  | increased protein levels of CLDN6 on the cell surface | 
COc1cccc2c1C(=O)c1c(O)c3c(c(O)c1C2=O)C[C@@](O)(C(=O)CO)C[C@@H]3O[C@H]1C[C@H](N)[C@H](O)[C@H](C)O1 [doxorubicin] |  | increased protein levels of CLDN6 on the cell surface | 
CC[C@@]1(O)C(=O)OCc2c1cc1n(c2=O)Cc2cc3c(CN(C)C)c(O)ccc3nc2-1 [topotecan, (S)-10-[(dimethylamino)methyl]-4-ethyl-4,9-dihydroxy-1H-pyrano[3′,4′:6,7]indolizino[1,2-b]quinoline-3,14(4H,12H)-dione monohydrochloride] |  | increased protein levels of CLDN6 on the cell surface | 
